{
  "source": "patent US5698528A",
  "about": "“Substance IT-62-B and medicinal composition containing the same” (Taiho Pharmaceutical Co., Ltd., priority 1994, dated 1997)",
  "key": {"[1]": {"tested_on": "murine leukemia P388 cells", "test": "Survival effect against murine leukemia P388 cells implanted intraperitoneally", "format": "in vivo, mouse (male CDF1)", "conditions": "0.25 mg/kg intraperitoneally, 1 day after i.p. implantation of 1×10^6 P388 cells, male CDF1 mice", "source_text": "B. Survival effect against murine leukemia P388 cells implanted intraperitoneally:\nThe antitumor activity of the compound according to the present invention was judged by the survival effect against murine leukemia (p388 cells). The three of Male CDF1 mice (aged 6 weeks) were used as test animals for an administering group and 10 mice for an untreating control group. Murine leukemia P388 cells (1×10^6 cells) were implanted intraperitoneally in all the mice. Upon elapsed time of 1 day (the first day) after the implantation, the substance IT-62-B dissolved in a 3.5% solution of dimethyl sulfoxide in physiological saline was administered intraperitoneally to the mice of the administering group at a dose of 0.25 mg/kg so as to observe survival days of the mice. […] [formula]"}, "[2]": {"tested_on": "Micrococcus luteus ATCC 10240", "test": "Antibacterial MIC (agar dilution)", "format": "cell-based", "conditions": "ATCC10240, Muller-Hinton agar, 37° C., 18 hours, 10^6 cells/ml", "method": "(§1) (1) Determination of antibacterial activities of the substance IT-62-B:\n(§2) Minimum inhibitory concentrations (MICs) of the compound according to the present invention against various bacteria were determined in accordance with the MIC measurement method of Japan Society of Chemotherapy (see journal of Chemotherapy, Vol. 29, No. 1, pp. 76-79, 1981). More specifically, Muller-Hinton agar media (product of Difco Co.) containing the compound according to the present invention at various concentrations were used. The test organisms diluted to 10^6 cells/ml, respectively, were inoculated said test organisms having been grown on the same medium as described above."}, "Bacillus cereus IFO 3001": {"tested_on": "Bacillus cereus IFO 3001", "test": "Antibacterial MIC (agar dilution)", "format": "cell-based", "conditions": "IFO3001, Muller-Hinton agar, 37° C., 18 hours, 10^6 cells/ml", "method": "as §1, §2"}, "[3]": {"tested_on": "Escherichia coli IAM 1268", "test": "Antibacterial MIC (agar dilution)", "format": "cell-based", "conditions": "IAM1268, Muller-Hinton agar, 37° C., 18 hours, 10^6 cells/ml", "method": "as §1, §2"}, "[4]": {"tested_on": "Serratia marcescens IFO 12648", "test": "Antibacterial MIC (agar dilution)", "format": "cell-based", "conditions": "IFO12648, Muller-Hinton agar, 37° C., 18 hours, 10^6 cells/ml", "method": "as §1, §2"}, "Escherichia coli NIHJ": {"tested_on": "Escherichia coli NIHJ", "test": "Antibacterial MIC (agar dilution)", "format": "cell-based", "conditions": "Muller-Hinton agar, 37° C., 18 hours, 10^6 cells/ml", "method": "as §1, §2"}, "[5]": {"tested_on": "Micrococcus luteus ATCC 9341", "test": "Antibacterial MIC (agar dilution)", "format": "cell-based", "conditions": "ATCC9341, Muller-Hinton agar, 37° C., 18 hours, 10^6 cells/ml", "method": "as §1, §2"}, "[6]": {"tested_on": "Staphylococcus aureus (MRSA)70", "test": "Antibacterial MIC (agar dilution)", "format": "cell-based", "conditions": "18 h", "method": "as §1, §2"}, "[7]": {"tested_on": "Bacillus subtilis ATCC 6633", "test": "Antibacterial MIC (agar dilution)", "format": "cell-based", "conditions": "ATCC6633, Muller-Hinton agar, 37° C., 18 hours, 10^6 cells/ml", "method": "as §1, §2"}, "[8]": {"tested_on": "Pseudomonas aeruginosa NCTC 10490", "test": "Antibacterial MIC (agar dilution)", "format": "cell-based", "conditions": "NCTC10490, Muller-Hinton agar, 37° C., 18 hours, 10^6 cells/ml", "method": "as §1, §2"}, "[9]": {"tested_on": "Staphylococcus aureus Smith", "test": "Antibacterial MIC (agar dilution)", "format": "cell-based", "conditions": "Muller-Hinton agar, 37° C., 18 hours, 10^6 cells/ml", "method": "as §1, §2"}, "[10]": {"tested_on": "Enterococcus faecalis IFO 12968", "test": "Antibacterial MIC (agar dilution)", "format": "cell-based", "conditions": "IFO12968, Muller-Hinton agar, 37° C., 18 hours, 10^6 cells/ml", "method": "as §1, §2"}, "[11]": {"tested_on": "Proteus vulgaris IID OX-19", "test": "Antibacterial MIC (agar dilution)", "format": "cell-based", "conditions": "IIDOX19, Muller-Hinton agar, 37° C., 18 hours, 10^6 cells/ml", "method": "as §1, §2"}, "[12]": {"tested_on": "Salmonella typhymurium G-46", "test": "Antibacterial MIC (agar dilution)", "format": "cell-based", "conditions": "G46, Muller-Hinton agar, 37° C., 18 hours, 10^6 cells/ml", "method": "as §1, §2"}, "[13]": {"tested_on": "Alcaligenes faecalis IAM 1015", "test": "Antibacterial MIC (agar dilution)", "format": "cell-based", "conditions": "IAM1015, Muller-Hinton agar, 37° C., 18 hours, 10^6 cells/ml", "method": "as §1, §2"}, "[14]": {"tested_on": "Staphylococcus epidermidis ATCC 12228", "test": "Antibacterial MIC (agar dilution)", "format": "cell-based", "conditions": "ATCC12228, Muller-Hinton agar, 37° C., 18 hours, 10^6 cells/ml", "method": "as §1, §2"}, "[15]": {"tested_on": "Bacillus subtilis ATCC(rec^-)", "test": "Antibacterial MIC (agar dilution)", "format": "cell-based", "conditions": "Muller-Hinton agar, 37° C., 18 hours, 10^6 cells/ml", "method": "as §1, §2"}, "[16]": {"tested_on": "Staphylococcus aureus (MRSA)92-1192", "test": "Antibacterial MIC (agar dilution)", "format": "cell-based", "conditions": "18 h", "method": "as §1, §2"}, "[17]": {"tested_on": "Bacillus subtilis ATCC(rec^+)", "test": "Antibacterial MIC (agar dilution)", "format": "cell-based", "conditions": "Muller-Hinton agar, 37° C., 18 hours, 10^6 cells/ml", "method": "as §1, §2"}, "[18]": {"tested_on": "Klebsiella pneumoniae ATCC 29665", "test": "Antibacterial MIC (agar dilution)", "format": "cell-based", "conditions": "ATCC29665, Muller-Hinton agar, 37° C., 18 hours, 10^6 cells/ml", "method": "as §1, §2"}, "[19]": {"tested_on": "KB cell line derived from human nasopharyngeal carcinoma", "test": "50% inhibitory concentration against KB cell line (growth inhibition, trypan blue viable count)", "format": "cell-based", "conditions": "72 h, incubation for 3 days, 37° C., trypan blue dye exclusion", "method": "A. Determination of 50% inhibitory concentration against the established culture cell line derived from human nasopharyngeal carcinoma:\nA 50% inhibitory concentration (IC50) of the compound according to the present invention against an established culture cell line (KB cell line) derived from human nasopharyngeal carcinoma was determined. More specifically, the KB cell line (2×10^3 cells/ml of medium) was cultured in an Eagle's minimal essential medium supplemented with a 10% calf serum, and 3 ml of this culture medium was incubated in a plastic Petri dish to incubate it at 37° C. in a CO2 -incubator (5% CO2). After overnight incubation, the compound according to the present invention was added with the compound diluted from a concentration of 1 μg/ml to a concentration of 1×10^-6 μg/ml by 10-fold dilution."}},
  "data": [
    {"smiles": "COc1cccc2c1C(=O)c1c(O)c3c(c(O)c1C2=O)CC(O)(C(C)=O)CC3OC1CC2C(OC(CC(C)O)OC(C)C3OC(C(C)CO)C(=O)N23)C(C)O1", "note": "(stereo not drawn) [IT-62-B]", "values": [
      {"measurement": "Percent increase in survival", "setting": "[1]", "value": 119, "unit": "%"},
      {"measurement": "MIC", "setting": "[2]", "value": 1.56, "unit": "µg/mL"},
      {"measurement": "MIC", "setting": "Bacillus cereus IFO 3001", "value": 12.5, "unit": "µg/mL"},
      {"measurement": "MIC", "setting": "[3]", "value": 50, "unit": "µg/mL"},
      {"measurement": "MIC", "setting": "[4]", "value": "> 100", "unit": "µg/mL"},
      {"measurement": "MIC", "setting": "Escherichia coli NIHJ", "value": 100, "unit": "µg/mL"},
      {"measurement": "MIC", "setting": "[5]", "value": 3.13, "unit": "µg/mL"},
      {"measurement": "MIC", "setting": "[6]", "value": 12.5, "unit": "µg/mL"},
      {"measurement": "MIC", "setting": "[7]", "value": 3.13, "unit": "µg/mL"},
      {"measurement": "MIC", "setting": "[8]", "value": "> 100", "unit": "µg/mL"},
      {"measurement": "MIC", "setting": "[9]", "value": 6.25, "unit": "µg/mL"},
      {"measurement": "MIC", "setting": "[10]", "value": 50, "unit": "µg/mL"},
      {"measurement": "MIC", "setting": "[11]", "value": "> 100", "unit": "µg/mL"},
      {"measurement": "MIC", "setting": "[12]", "value": "> 100", "unit": "µg/mL"},
      {"measurement": "MIC", "setting": "[13]", "value": 12.5, "unit": "µg/mL"},
      {"measurement": "MIC", "setting": "[14]", "value": 25, "unit": "µg/mL"},
      {"measurement": "MIC", "setting": "[15]", "value": 0.39, "unit": "µg/mL"},
      {"measurement": "MIC", "setting": "[16]", "value": 12.5, "unit": "µg/mL"},
      {"measurement": "MIC", "setting": "[17]", "value": 6.25, "unit": "µg/mL"},
      {"measurement": "MIC", "setting": "[18]", "value": "> 100", "unit": "µg/mL"},
      {"measurement": "IC50", "setting": "[19]", "value": 0.006, "unit": "µg/mL"}
    ]}
  ]
}
